Where two headings read alike, the source gives them in different places. Square brackets hold non-standard residues; d marks the D form. Peptide text beside a SMILES is read from it. N(4-F-Bzl)Gly = O=C(O)CNCc1ccc(F)cc1; Gly(N-(CH2)6NH2) = NCCCCCCNCC(=O)O; Gly(N-2-aminoethyl) = NCCNCC(=O)O; Nspe = C[C@H](NCC(=O)O)c1ccccc1; NhArg = N=C(N)NCCCCNCC(=O)O; Nphe = O=C(O)CNCc1ccccc1; Nlys = NCCCCNCC(=O)O
What was measured:
[1] = test system: HepG2 cells; assay: Cytotoxicity assay with HepG2 (alamarBlue); format: cell-based, human
In short: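 HepG2 cells (2 × 10^4/well, seeded 1 day earlier) were exposed to compounds (2–100 μM dilution series, triplicate) for 1 h in reduced volume, then diluted with medium and incubated 24 h at 37 °C. Viability was read by alamarBlue after 2 h (Ex 560/Em 600 nm), and ED50 (dose killing 50% of cells) came from dose-response curves.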

[2] = test system: HaCaT cells; assay: Skin cell toxicity assay with HaCaT (alamarBlue); format: cell-based, human
In short: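 HaCaT cells seeded at 2x10^4 per well 24 hours before 1-hour exposure to a 2–100 µM triplicate dilution series in DMEM high glucose with 10% FBS at 37 °C, 5% CO2. Viability assessed with alamarBlue; ED50 defined as dose killing 50% of cells, derived from dose-response data.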

[3] = human, HaCaT cells (keratinocytes), 24 h
[4] = dose that kills 50% of cells, 2–100 μM, 1 h with compound then 24 h, alamarBlue

Molecule	ED50 HepG2 [1] [µM]	ED50 HepG2 ([1]; human, HepG2 cells, 24 h) [µM]	ED50 HaCaT [2, 3] [µM]	other results
(NhArgNmfbNmfb)4 [Peptoid 36]	21	–	–	ED50 HaCaT [2]: 28 µM
NCCCCCCNCC(=O)N(CC(=O)N(CC(=O)N(CCCCCCN)CC(=O)N(CC(=O)N(CC(=O)N(CCCCCCN)CC(=O)N(CC(=O)N(CC(=O)N(CCCCCCN)CC(=O)N(CC(=O)N(CC(N)=O)Cc1ccccc1)Cc1ccccc1)Cc1ccccc1)Cc1ccccc1)Cc1ccccc1)Cc1ccccc1)Cc1ccccc1)Cc1ccccc1 [Peptoid 1, (NahNpheNphe)4] (H-[Gly(N-(CH2)6NH2)][Nphe][Nphe][Gly(N-(CH2)6NH2)][Nphe][Nphe][Gly(N-(CH2)6NH2)][Nphe][Nphe][Gly(N-(CH2)6NH2)][Nphe][Nphe]-NH2)	–	>100	>100	–
NCCCCNCC(=O)N(CC(=O)N(CC(=O)N(CCCCN)CC(=O)N(CC(=O)N(CC(=O)N(CCCCN)CC(=O)N(CC(=O)N(CC(N)=O)Cc1ccccc1)Cc1ccccc1)Cc1ccccc1)Cc1ccccc1)Cc1ccccc1)Cc1ccccc1 [Peptoid 5, (NLysNpheNphe)3]	–	>100	>100	–
NCCCCNCC(=O)N(CC(=O)N(CC(=O)N(CCCCN)CC(=O)N(CC(=O)N(CC(=O)N(CCCCN)CC(=O)N(CC(=O)N(CC(=O)N(CCCCN)CC(=O)N(CC(=O)N(CC(N)=O)Cc1ccccc1)Cc1ccccc1)Cc1ccccc1)Cc1ccccc1)Cc1ccccc1)Cc1ccccc1)Cc1ccccc1)Cc1ccccc1 [Peptoid 4, (NLysNpheNphe)4] (H-[Nlys][Nphe][Nphe][Nlys][Nphe][Nphe][Nlys][Nphe][Nphe][Nlys][Nphe][Nphe]-NH2)	> 100	>100	–	toxicity to HaCaT or HepG2 (in words) [2]: negligible toxicity
C[C@@H](c1ccccc1)N(CC(N)=O)C(=O)CN(C(=O)CN(CCCCN)C(=O)CN(Cc1ccc(F)cc1)C(=O)CN(Cc1ccc(F)cc1)C(=O)CN(CCCCN)C(=O)CN(C(=O)CN(C(=O)CN(CCCCN)C(=O)CN(Cc1ccc(F)cc1)C(=O)CN(Cc1ccc(F)cc1)C(=O)CNCCCCN)[C@@H](C)c1ccccc1)[C@@H](C)c1ccccc1)[C@@H](C)c1ccccc1 [Peptoid 28, [(NLysNpfbNpfb)(NLysNspeNspe)]2]	55	–	>100	toxicity to HaCaT or HepG2 (in words) [2]: negligible toxicity
C[C@@H](c1ccccc1)N(CC(N)=O)C(=O)CN(C(=O)CN(CCCCN)C(=O)CN(C(=O)CN(C(=O)CN(CCCCN)C(=O)CN(C(=O)CN(C(=O)CN(CCCCN)C(=O)CN(C(=O)CN(C(=O)CNCCCCN)[C@@H](C)c1ccccc1)[C@@H](C)c1ccccc1)[C@@H](C)c1ccccc1)[C@@H](C)c1ccccc1)[C@@H](C)c1ccccc1)[C@@H](C)c1ccccc1)[C@@H](C)c1ccccc1 [Peptoid 13, (NLysNspeNspe)4] (H-[Nlys][Nspe][Nspe][Nlys][Nspe][Nspe][Nlys][Nspe][Nspe][Nlys][Nspe][Nspe]-NH2)	–	–	–	ED50 HepG2 [1, 4]: 29 µM; ED50 HaCaT [2, 4]: 20 µM
NCCCCNCC(=O)N(CC(=O)N(CC(=O)N(CCCCN)CC(=O)N(CC(=O)N(CC(=O)N(CCCCN)CC(=O)N(CC(=O)N(CC(N)=O)Cc1ccc(F)cc1)Cc1ccc(F)cc1)Cc1ccc(F)cc1)Cc1ccc(F)cc1)Cc1ccc(F)cc1)Cc1ccc(F)cc1 [Peptoid 23, (NLysNpfbNpfb)3] (H-[Nlys][N(4-F-Bzl)Gly][N(4-F-Bzl)Gly][Nlys][N(4-F-Bzl)Gly][N(4-F-Bzl)Gly][Nlys][N(4-F-Bzl)Gly][N(4-F-Bzl)Gly]-NH2)	–	–	>100	toxicity to HaCaT or HepG2 (in words) [2]: negligible toxicity
C[C@@H](c1ccccc1)N(CC(N)=O)C(=O)CN(C(=O)CN(CCN)C(=O)CN(C(=O)CN(C(=O)CNCCN)[C@@H](C)c1ccccc1)[C@@H](C)c1ccccc1)[C@@H](C)c1ccccc1 [Peptoid 18, (NaeNspeNspe)2]	–	>100	>100	–
C[C@@H](c1ccccc1)N(CC(N)=O)C(=O)CN(C(=O)CN(CCCCCCN)C(=O)CN(C(=O)CN(C(=O)CNCCCCCCN)[C@@H](C)c1ccccc1)[C@@H](C)c1ccccc1)[C@@H](C)c1ccccc1 [Peptoid 12, (NahNspeNspe)2]	–	>100	>100	–
CCCCCNCC(=O)N(CC(=O)N(CC(=O)N(CCCCC)CC(=O)N(CC(=O)N(CC(=O)N(CCCCN)CC(=O)N(CC(=O)N(CC(=O)N(CCCCN)CC(=O)N(CC(=O)N(CC(N)=O)[C@@H](C)c1ccccc1)[C@@H](C)c1ccccc1)[C@@H](C)c1ccccc1)[C@@H](C)c1ccccc1)[C@@H](C)c1ccccc1)[C@@H](C)c1ccccc1)[C@@H](C)c1ccccc1)[C@@H](C)c1ccccc1 [Peptoid 31, (NamyNspeNspe)2(NLysNspeNspe)2]	18	–	–	ED50 HaCaT [2]: 20 µM
NCCCCCCNCC(=O)N(CC(=O)N(CC(=O)N(CCCCCCN)CC(=O)N(CC(=O)N(CC(N)=O)Cc1ccccc1)Cc1ccccc1)Cc1ccccc1)Cc1ccccc1 [Peptoid 3, (NahNpheNphe)2] (H-[Gly(N-(CH2)6NH2)][Nphe][Nphe][Gly(N-(CH2)6NH2)][Nphe][Nphe]-NH2)	–	>100	>100	–
NCCCCNCC(=O)N(CC(=O)N(CC(=O)N(CCCCN)CC(=O)N(CC(=O)N(CC(N)=O)Cc1ccccc1)Cc1ccccc1)Cc1ccccc1)Cc1ccccc1 [Peptoid 6, (NLysNpheNphe)2] (H-[Nlys][Nphe][Nphe][Nlys][Nphe][Nphe]-NH2)	–	>100	>100	–
C[C@@H](c1ccccc1)N(CC(N)=O)C(=O)CN(C(=O)CN(CCN)C(=O)CN(C(=O)CN(C(=O)CN(CCN)C(=O)CN(C(=O)CN(C(=O)CNCCN)[C@@H](C)c1ccccc1)[C@@H](C)c1ccccc1)[C@@H](C)c1ccccc1)[C@@H](C)c1ccccc1)[C@@H](C)c1ccccc1 [Peptoid 17, (NaeNspeNspe)3]	–	–	–	ED50 HepG2 [1, 4]: >100 µM; ED50 HaCaT [2, 4]: >100 µM
NCCNCC(=O)N(CC(=O)N(CC(=O)N(CCN)CC(=O)N(CC(=O)N(CC(N)=O)Cc1ccccc1)Cc1ccccc1)Cc1ccccc1)Cc1ccccc1 [Peptoid 9, (NaeNpheNphe)2] (H-[Gly(N-2-aminoethyl)][Nphe][Nphe][Gly(N-2-aminoethyl)][Nphe][Nphe]-NH2)	–	>100	>100	–
NCCCCNCC(=O)N(CC(=O)N(CC(=O)N(CCCCN)CC(=O)N(CC(=O)N(CC(=O)N(CCCCN)CC(=O)N(CC(=O)N(CC(=O)N(CCCCN)CC(=O)N(CC(=O)N(CC(N)=O)Cc1ccc(F)cc1)Cc1ccc(F)cc1)Cc1ccc(F)cc1)Cc1ccc(F)cc1)Cc1ccc(F)cc1)Cc1ccc(F)cc1)Cc1ccc(F)cc1)Cc1ccc(F)cc1 [Peptoid 22, (NLysNpfbNpfb)4] (H-[Nlys][N(4-F-Bzl)Gly][N(4-F-Bzl)Gly][Nlys][N(4-F-Bzl)Gly][N(4-F-Bzl)Gly][Nlys][N(4-F-Bzl)Gly][N(4-F-Bzl)Gly][Nlys][N(4-F-Bzl)Gly][N(4-F-Bzl)Gly]-NH2)	30	–	–	ED50 HaCaT [2]: 46 µM
NCCNCC(=O)N(CC(=O)N(CC(=O)N(CCN)CC(=O)N(CC(=O)N(CC(=O)N(CCN)CC(=O)N(CC(=O)N(CC(N)=O)Cc1ccccc1)Cc1ccccc1)Cc1ccccc1)Cc1ccccc1)Cc1ccccc1)Cc1ccccc1 [Peptoid 8, (NaeNpheNphe)3] (H-[Gly(N-2-aminoethyl)][Nphe][Nphe][Gly(N-2-aminoethyl)][Nphe][Nphe][Gly(N-2-aminoethyl)][Nphe][Nphe]-NH2)	–	>100	>100	–
C[C@@H](c1ccccc1)N(CC(N)=O)C(=O)CN(C(=O)CN(CCCCNC(=N)N)C(=O)CN(C(=O)CN(C(=O)CN(CCCCNC(=N)N)C(=O)CN(C(=O)CN(C(=O)CN(CCCCNC(=N)N)C(=O)CN(C(=O)CN(C(=O)CNCCCCNC(=N)N)[C@@H](C)c1ccccc1)[C@@H](C)c1ccccc1)[C@@H](C)c1ccccc1)[C@@H](C)c1ccccc1)[C@@H](C)c1ccccc1)[C@@H](C)c1ccccc1)[C@@H](C)c1ccccc1 [Peptoid 34, (NhArgNspeNspe)4] (H-[NhArg][Nspe][Nspe][NhArg][Nspe][Nspe][NhArg][Nspe][Nspe][NhArg][Nspe][Nspe]-NH2)	12	–	–	ED50 HaCaT [2]: 20 µM
NCCCCCCNCC(=O)N(CC(=O)N(CC(=O)N(CCCCCCN)CC(=O)N(CC(=O)N(CC(=O)N(CCCCCCN)CC(=O)N(CC(=O)N(CC(N)=O)Cc1ccccc1)Cc1ccccc1)Cc1ccccc1)Cc1ccccc1)Cc1ccccc1)Cc1ccccc1 [Peptoid 2, (NahNpheNphe)3] (H-[Gly(N-(CH2)6NH2)][Nphe][Nphe][Gly(N-(CH2)6NH2)][Nphe][Nphe][Gly(N-(CH2)6NH2)][Nphe][Nphe]-NH2)	–	>100	>100	–
COc1ccc(CN(CC(N)=O)C(=O)CN(Cc2ccc(OC)cc2)C(=O)CN(CCCCN)C(=O)CN(Cc2ccc(OC)cc2)C(=O)CN(Cc2ccc(OC)cc2)C(=O)CN(CCCCN)C(=O)CN(Cc2ccc(OC)cc2)C(=O)CN(Cc2ccc(OC)cc2)C(=O)CN(CCCCN)C(=O)CN(Cc2ccc(OC)cc2)C(=O)CN(Cc2ccc(OC)cc2)C(=O)CNCCCCN)cc1 [Peptoid 19, (NLysNpmbNpmb)4]	–	>100	–	–

Reference: article PMC6072100, “Exploring the links between peptoid antibacterial activity and toxicity” (MedChemComm, 2017)
